The text below walks through data of patent publication US20240271100A1, “IN VITRO DIFFERENTIATION OF PANCREATIC ENDOCRINE CELLS” (VERTEX PHARMACEUTICALS INCORPORATED, priority 2020, published 2024).

In one experiment the target is EZH2 (Homo sapiens, UniProt Q15910). The following applies: cited from earlier work.
For experiment [1], the system named is Stage 6 cells (NKX6.1-positive, ISL1-positive endocrine cells). Kind of experiment: FGF2 applied at S6 of the Version A or Version B differentiation protocol; cell composition by flow cytometry. The experiment is classed as cell-based, human. The method, then:
In one experiment, the effect of FGF2 treatment at S6 was examined by comparing Stage 6 cells generated with Version A protocol, as described in Example 1, or with Version A protocol plus FGF2 treatment (100 ng/mL) at S6 for the first 3 days.
In another experiment, the effect of FGF2 treatment at S6 was examined by comparing S6 cells generated under four differentiation conditions: Version A protocol; Version A protocol + FGF2 treatment (100 ng/mL for the first 12 days) at S6; Version B protocol; Version B protocol+ FGF2 treatment at S6. Version B protocol shares similar reagents and treatment timing with […], in Version B protocol, one difference from Version A protocols is that the cells were supplemented with 500 nM PDBU from day 5 of Stage 4 (S4d5) to day 2 of […] (S5d2). […]

The test system of experiment [2] is PDX1-positive pancreatic progenitor cells. Kind of experiment: FGF2 applied during S4 of the Version A differentiation protocol; flow cytometry of the resulting endocrine cell population. It is filed as cell-based, human. As to the method: (§1) For initial steps, basically, human pluripotent stem cell line SEM01 was thawed from a 3D suspension bank and seeded at a density of 1M cells/ml into 500 ml spinner flasks (Corning; 89,089-814) with 300 ml Nutristem media (Biological Industries 05-100-1A) supplemented with […] Y27632 (ab120129) and 100 ng/ml FGF2 (Peprotech RUO: 100-18B-1MG). Spinner flasks were placed on a magnetic stir plate (Chemglass) rotating at 60 r.p.m. in a humidified 37 C incubator set at 5% CO2. Cells were passaged every 72 hours. After 3 passages, cells were seeded at 0.5M cells/ml density and fed every 24 hours until 72 hours. Then, differentiation was initiated in spinner flasks using the Version A differentiation protocol which begins on day 1 of Stage 1 (S1, day 1). FGF2 was added to Stage 3, Stage 4, or Stage 5 as detailed below in the modified protocol.
(§2) Version A protocol is a 6-stage stepwise protocol. With Version A protocol, stem cells were treated with reagents in the following consecutive orders during the six stages: Stage 1 (S1), Activin-A for 3 days and also CHIR99021 for the first 24 hr; Stage 2 (S2), KGF for 3 days; Stage 3 (S3), KGF, PDBU, Sant-1, retinoic acid (RA), Activin A, and Thiazovivin for 2 days, and also DMH-1 for the first day; Stage 4 (S4), KGF, Sant-1, Thiazovivin, Activin A, and RA for 6 days; Stage 5 (S5), XXI, Alk5i, GC-1, LDN-193189, Thiazovivin, Staurosporine, and DZNEP for 7 days, and also RA, Sant-1, and Betacellulin for the first 2 days.
(§3) Upon completion of Stage 5, on Stage 6 day 1 (S6dl), the cells were collected, dispersed, and analyzed by flow cytometry. Briefly, islets were dispersed with TrypLE Express (Life Technologies; 12,604,013) at 37 C, fixed with 4% PFA for 20 mins at 4 C, blocked by 1 hour in FACS buffer (5% Donkey Serum and 0.1% Saponin in PBS) at room temperature, stained with NKX6.1 (DSHB FSSA12 1:100) and ISL1 (ab178400 1:500) antibodies diluted in FACS buffer overnight at 4 C. The next day, cells were washed twice with FACS buffer, stained with secondary antibody: anti-Rabbit AlexaFluor-488 (A31573 1:1000) and anti-Mouse Alexa Fluro-647 (A31571 1:1000) diluted in FACS buffer, and washed twice with FACS buffer. Stained cells were measured using an Accuri 6 flow cytometer (BD Biosciences) and analyzed using Accuri software.
In one experiment, Version A protocol, as described in Example 1, was compared with a modified protocol in which 100 ng/mL FGF2 was added on day 1, 3, and 5 of S4 to the culture medium. As described above, on S6dl, the cells were collected, dispersed, and analyzed by flow cytometry.

Experiment [3] relates to PDX1-positive, NKX6.1-positive pancreatic progenitor cells. The experiment is described as follows: FGF2 applied at S5 day 1 and day 2 of the Version A differentiation protocol; flow cytometry on S6d1. The experiment is classed as cell-based, human. The following applies: FGF2 100 ng/mL at S5 day 1 and day 2; FIGS. 8A-8B. The method, then:
as §1, §2
Upon completion of Stage 5, on Stage 6 day 1 (S6dl), the cells were collected, dispersed, and analyzed by flow cytometry. […] Stained cells were measured using an Accuri 6 flow cytometer (BD Biosciences) and analyzed using Accuri software.
In one experiment, Version A protocol, as described in Example 1, was compared with a modified protocol in which 100 ng/mL FGF2 was added on protocol day 15 and day 16 (Stage 5 day 1 and day 2). As described above, on S6dl, the cells were collected, dispersed, and analyzed by flow cytometry.
On the technique in general: A flow cytometer gives signals particle by particle.

A further experiment relates to primitive gut tube cells. Kind of experiment: FGF2 applied during S3 of the Version A differentiation protocol; flow cytometry of the resulting endocrine cell population. It is filed as cell-based, human. As to the method:
An exemplary differentiation protocol, Version A, according to the present disclosure and its modified version, which added use of FGF2 at Stage 3, were tested for differentiating human stem cells into mature β cells capable of releasing insulin in response to glucose challenge in vitro.
as §1, §2
In one experiment, on protocol day 7 (S3, day 1; S3dl), 10 mL of cell clusters were taken from the spinner flask and aliquoted into 2 wells of ultra-low attachment 6-well plates (Corning 29443) (5 mL/well). The plate was placed on an orbital shaker set to 130 rpm in the incubator. Cells received either control Version A conditions as described above or were supplemented with FGF2 (100 ng/ml) on protocol day 7 and day 8 only (S3d1 and S3d2).
as §3

[4] abbreviates: FGF2 treatment at S6, summary FIG. 8A.
The mark [5] stands for this setting: Version B protocol, FGF2 at S6, by S6d8 and S6d12, FIGS. 5A-C.
The mark [6] stands for this setting: FGF2 100 ng/mL at S4 versus Version A without FGF2, FIG. 2B.
Where [7] appears, read: FGF2 treatment at S4, FIGS. 8A-8B.
The mark [8] stands for this setting: FGF2 treatment at S3, by the end of S5, FIGS. 8A-8B.

EZH2, sequence (Q15910 whole entry, species assumed): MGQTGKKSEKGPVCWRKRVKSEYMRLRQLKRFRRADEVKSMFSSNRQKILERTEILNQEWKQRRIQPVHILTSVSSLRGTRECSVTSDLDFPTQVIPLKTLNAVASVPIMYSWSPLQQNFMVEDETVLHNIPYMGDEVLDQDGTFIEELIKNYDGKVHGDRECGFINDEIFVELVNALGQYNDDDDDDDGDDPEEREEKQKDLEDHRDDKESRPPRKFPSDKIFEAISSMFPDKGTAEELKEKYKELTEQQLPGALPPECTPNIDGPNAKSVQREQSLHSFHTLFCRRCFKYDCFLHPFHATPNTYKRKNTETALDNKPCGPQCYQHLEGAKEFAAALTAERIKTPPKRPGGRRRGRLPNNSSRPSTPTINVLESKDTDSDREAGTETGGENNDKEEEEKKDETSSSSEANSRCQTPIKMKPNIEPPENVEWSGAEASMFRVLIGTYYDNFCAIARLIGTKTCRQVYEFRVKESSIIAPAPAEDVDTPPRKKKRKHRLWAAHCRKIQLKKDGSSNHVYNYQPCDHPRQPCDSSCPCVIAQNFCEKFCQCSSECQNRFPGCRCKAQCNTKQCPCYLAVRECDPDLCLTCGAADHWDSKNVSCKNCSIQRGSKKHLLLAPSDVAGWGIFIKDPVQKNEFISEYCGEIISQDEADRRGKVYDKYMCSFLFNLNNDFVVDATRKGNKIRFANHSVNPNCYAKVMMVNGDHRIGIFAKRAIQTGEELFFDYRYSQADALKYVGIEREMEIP
EZH2, sequence (O75530 whole entry partner, species assumed): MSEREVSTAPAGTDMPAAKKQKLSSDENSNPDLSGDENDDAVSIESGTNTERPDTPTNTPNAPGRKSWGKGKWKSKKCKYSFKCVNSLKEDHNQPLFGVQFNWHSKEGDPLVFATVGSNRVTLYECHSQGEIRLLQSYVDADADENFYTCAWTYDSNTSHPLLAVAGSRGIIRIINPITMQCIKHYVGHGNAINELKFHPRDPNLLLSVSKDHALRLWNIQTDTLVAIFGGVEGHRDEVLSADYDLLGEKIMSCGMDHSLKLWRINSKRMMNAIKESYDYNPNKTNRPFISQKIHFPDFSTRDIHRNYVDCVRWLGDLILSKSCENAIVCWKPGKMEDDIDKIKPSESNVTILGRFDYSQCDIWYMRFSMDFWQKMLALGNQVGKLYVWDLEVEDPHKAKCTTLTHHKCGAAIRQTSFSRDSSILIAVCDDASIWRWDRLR
EZH2, sequence (Q15022 whole entry partner, species assumed): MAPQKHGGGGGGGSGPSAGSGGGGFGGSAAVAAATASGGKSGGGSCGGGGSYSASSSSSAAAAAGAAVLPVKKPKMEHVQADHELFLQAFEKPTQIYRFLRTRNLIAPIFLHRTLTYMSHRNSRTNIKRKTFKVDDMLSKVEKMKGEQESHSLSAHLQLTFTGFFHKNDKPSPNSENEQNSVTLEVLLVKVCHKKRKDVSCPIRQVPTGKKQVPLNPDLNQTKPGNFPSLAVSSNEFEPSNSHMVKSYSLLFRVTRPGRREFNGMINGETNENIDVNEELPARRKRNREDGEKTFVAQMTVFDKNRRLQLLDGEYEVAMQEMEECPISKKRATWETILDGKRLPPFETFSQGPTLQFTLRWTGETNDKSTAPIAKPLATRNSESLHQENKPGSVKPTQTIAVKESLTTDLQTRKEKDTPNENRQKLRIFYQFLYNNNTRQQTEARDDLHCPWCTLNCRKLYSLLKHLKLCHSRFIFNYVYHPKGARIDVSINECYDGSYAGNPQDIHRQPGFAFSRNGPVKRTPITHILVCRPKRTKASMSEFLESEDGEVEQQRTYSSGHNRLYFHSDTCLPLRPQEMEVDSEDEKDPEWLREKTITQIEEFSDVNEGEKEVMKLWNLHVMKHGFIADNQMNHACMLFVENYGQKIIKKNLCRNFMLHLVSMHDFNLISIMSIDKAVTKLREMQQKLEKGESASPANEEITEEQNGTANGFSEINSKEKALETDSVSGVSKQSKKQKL

For the compound `CC[C@H](C)n1cc(C)c2c(C(=O)NCc3c(C)cc(C)[nH]c3=O)cc(-c3ccc(N4CCNCC4)nc3)cc21` [GSK126], the “selectivity over EZH1” value on EZH2 (EZH2 versus EZH1) is 150 fold.

For `CCCc1cc(C)[nH]c(=O)c1CNC(=O)c1cc(-c2ccc(N3CCN(C(C)C)CC3)nc2)cc2c1cnn2C(C)C` [UNC1999], the “selectivity compared with GSK126” value on EZH2 is on record as “less selective”.

Turning to “FGF2: growth factor from the FGF family; human FGF2 polypeptide sequence (GenBank Accession NP 001997); Peprotech RUO: 100-18B-1MG”, the “change in percentage of Ki67-positive cells” value in experiment [1] (FGF2 at S6, both Version A and Version B protocols) is on record as “increased”. Also, the “percentage of non-proliferating SOX9-positive cells (SOX9-positive, Ki67-negative)” value in experiment [1] (FGF2 at S6, by S6d12, both Version A and Version B protocols, without FGF2 15%-25%, FIG. 6A) is given as “about 65%”. In addition, in experiment [1] (FGF2 at S6, by S6d12, both Version A and Version B protocols, without FGF2 close to zero, FIG. 6B), the “percentage of proliferating SOX9-positive cells (SOX9-positive, Ki67-positive)” value was 15%-20%. Also, the “change in percentage of proliferating non-SOX9 cells (SOX9-negative, Ki67-positive)” value in experiment [1] (FGF2 treatment at S6, FIG. 6C) is reported as “small change”. Also, the “effect on SC-EC cells, as measured by expression of VMAT1, or positivity for NKX6.1 and negativity for ISL1” value in experiment [1] (FGF2 treatment at S6, S6d4, S6d8, S6d12, FIGS. 7A-7B) is recorded as “small effect”. In addition, in experiment [1] (setting [4]), the “change in percentage of SC-α cells” value was “increase”, the “change in percentage of SC-β cells” value is recorded as “increase” and the “change in percentage of SC-δ cells” value is “increase”. For the same compound, the “percentage of NKX6.1-positive, ISL1-positive SC-β cells” value in experiment [1] (Version A plus FGF2 100 ng/mL at S6 for the first 3 days, flow cytometry, without FGF2 18.5%) came to 36.9%. For the same compound, in experiment [1] (Version A protocol, FGF2 100 ng/mL for the first 12 days at S6, by S6d8 and S6d12), the “change in percentage of SC-β cell” value was “relatively unchanged”. Also, in experiment [1] (setting [5]), the “change in SC-δ cell percentage” value is listed as “increased”, the “change in percentage of SC-α cells” value was “reduced” and the “change in percentage of SC-β cells” value is reported as “reduced”. Besides, the “change in SOX9-positive cells” value in experiment [1] (addition of FGF2 at S6, both Version A and Version B protocols) is listed as “significantly increased”. For the same compound, in experiment [2] (setting [6]), the “change in percentage of glucagon-positive, ARX-positive cells” value is “increased”; the “change in percentage of total ARX-positive cells” value is on record as “increased”; the “increase of the percentage of somatostatin-positive SC-δ cells” value is reported as “about two”. Besides, the “percentage of NKX6.1-negative, ISL1-positive SC-α cells” value in experiment [2] (FGF2 100 ng/mL on day 1, 3 and 5 of S4, Version A, flow cytometry on S6d1, without FGF2 5.6%) was found to be 12.0%. Further, the “percentage of NKX6.1-positive, ISL1-positive SC-β cells” value in experiment [2] (FGF2 100 ng/mL on day 1, 3 and 5 of S4, Version A, flow cytometry on S6d1, without FGF2 around 43%) is “around 55%”. Besides, in experiment [2] (setting [7]), the “change in percentage of SC-EC cells” value is reported as “decreased”, the “change in percentage of SC-α cells” value is on record as “increase”, the “change in percentage of SC-β cells” value was “increase” and the “change in percentage of SC-δ cells” value is reported as “increase”. In addition, the “change in percentage of SOX9-positive cells” value in experiment [2] (setting [7]) is “decreased”. The “percentage of VMAT1-positive cells” value in experiment [2] (FGF2 treatment at S4, without FGF2 about 60%, FIG. 3B) was “about 40%”. In addition, in experiment [2] (FGF2 treatment at S4, without FGF2 around 12.5%), the “percentage of SOX9-positive, NKX6.1-positive cells” value was “around 5%”. For the same compound, the “percentage of total SOX9-positive cells” value in experiment [2] (FGF2 treatment at S4, without FGF2 around 20%, FIG. 3A) is reported as “around 14%”. In addition, in experiment [2] (FGF2 treatment at S4, without FGF2 around 40%, FIG. 3B), the “percentage of NKX6.1-positive, ISL1-negative cells” value was “around 20%”. Further, in experiment [3], the “change in SC-EC cells” value is listed as “decrease”, the “change in SC-α cells” value was “increase” and the “change in percentage of SC-β cells” value is given as “no significant change”. In addition, the “percentage of SC-α cells that express ISL1, but do not express NKX6.1” value with primitive gut tube cells (FGF2 100 ng/ml on S3d1 and S3d2, Version A, flow cytometry on S6d1, without FGF2 9.7%) was determined as 35.1%. For the same compound, in the experiment with primitive gut tube cells (FGF2 100 ng/ml on S3d1 and S3d2, Version A, flow cytometry on S6d1, without FGF2 31.7%), the “percentage of SC-enterochromaffin cells (SC-EC) that express NKX6 but not ISL1.1” value stood at 13.1%. The “percentage of SC-β cells that express both NKX6.1 and ISL1” value in the experiment with primitive gut tube cells (FGF2 100 ng/ml on S3d1 and S3d2, Version A, flow cytometry on S6d1, without FGF2 49.3%) is on record as 36.6%. Moreover, in the experiment with primitive gut tube cells (setting [8]), the “change in percentage of SC-EC cells” value was “decreased” and the “change in percentage of SC-β cells” value is “decreased”. The “change in percentage of SC-α cells” value in the experiment with primitive gut tube cells (FGF2 treatment at S3, cells generated by the end of S5, FIGS. 8A-8B) is given as “increased”.
